In US20210255193A1, “LYSINE REACTIVE PROBES AND USES THEREOF” (The Scripps Research Institute, priority 2017, published 2021):

Assays:
Test in all cases: competitive isoTOP-ABPP
Type in all cases: binding
[1] = target: T1, G6PD Glucose-6-phosphate 1-dehydrogenase (Homo sapiens, UniProt P11413); conditions: for isoTOP-ABPP ratio (R) at liganded lysine P11413_K171: sol, 231
T1 construct: isoTOP-ABPP experiments performed in cell lysates (in vitro); endogenous in cells; host or cells: MDA-MB-231 soluble lysate
Method in brief: (§1)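 Probe: STP-alkyne, 0.1 mM, 1 h RT, after fragment pretreatment of lysate (esters 50 μM; guanidinylators 100 μM). Tags: light = compound, heavy = DMSO, via CuAAC. Replicates averaged if SD <60% of mean; otherwise lowest ratio used when any R <4.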

[2] = target: T2, MAP2K3 Dual specificity mitogen-activated protein kinase (Homo sapiens, UniProt P46734); conditions: for isoTOP-ABPP ratio (R) at liganded lysine P46734_K93: sol, 231
T2 construct: isoTOP-ABPP experiments performed in cell lysates (in vitro); endogenous in cells; host or cells: soluble proteome of human cancer cell lines (MDA-MB-231; Ramos and Jurkat also prepared)
T2 sequence (P46734 1-347): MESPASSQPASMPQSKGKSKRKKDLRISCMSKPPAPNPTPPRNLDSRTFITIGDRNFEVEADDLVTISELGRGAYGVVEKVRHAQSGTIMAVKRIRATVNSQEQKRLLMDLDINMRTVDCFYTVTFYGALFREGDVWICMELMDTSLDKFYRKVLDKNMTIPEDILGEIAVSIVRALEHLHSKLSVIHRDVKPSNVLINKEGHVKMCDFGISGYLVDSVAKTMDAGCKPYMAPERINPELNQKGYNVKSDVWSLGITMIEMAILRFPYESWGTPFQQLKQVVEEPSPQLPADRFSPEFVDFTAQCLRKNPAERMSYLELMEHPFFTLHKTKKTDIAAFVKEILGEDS
Method in brief: as §1

[3] = target: T3, NAA25 N-alpha-acetyltransferase 25, NatB auxiliary subunit (Homo sapiens, UniProt Q14CX7); conditions: for isoTOP-ABPP ratio (R) at liganded lysine Q14CX7_K575: sol, 231
T3 construct: isoTOP-ABPP experiments performed in cell lysates (in vitro); endogenous in cells; host or cells: soluble proteome of human cancer cell lines (MDA-MB-231; Ramos and Jurkat also prepared)
Method in brief: as §1

[4] = target: T4, PFKM 6-phosphofructokinase, muscle type (Homo sapiens, UniProt P08237); conditions: for isoTOP-ABPP ratio (R) at liganded lysine P08237_K678: sol, 231
T4 construct: isoTOP-ABPP experiments performed in cell lysates (in vitro); endogenous in cells; host or cells: MDA-MB-231 soluble lysate
T4 sequence (P08237 1-780): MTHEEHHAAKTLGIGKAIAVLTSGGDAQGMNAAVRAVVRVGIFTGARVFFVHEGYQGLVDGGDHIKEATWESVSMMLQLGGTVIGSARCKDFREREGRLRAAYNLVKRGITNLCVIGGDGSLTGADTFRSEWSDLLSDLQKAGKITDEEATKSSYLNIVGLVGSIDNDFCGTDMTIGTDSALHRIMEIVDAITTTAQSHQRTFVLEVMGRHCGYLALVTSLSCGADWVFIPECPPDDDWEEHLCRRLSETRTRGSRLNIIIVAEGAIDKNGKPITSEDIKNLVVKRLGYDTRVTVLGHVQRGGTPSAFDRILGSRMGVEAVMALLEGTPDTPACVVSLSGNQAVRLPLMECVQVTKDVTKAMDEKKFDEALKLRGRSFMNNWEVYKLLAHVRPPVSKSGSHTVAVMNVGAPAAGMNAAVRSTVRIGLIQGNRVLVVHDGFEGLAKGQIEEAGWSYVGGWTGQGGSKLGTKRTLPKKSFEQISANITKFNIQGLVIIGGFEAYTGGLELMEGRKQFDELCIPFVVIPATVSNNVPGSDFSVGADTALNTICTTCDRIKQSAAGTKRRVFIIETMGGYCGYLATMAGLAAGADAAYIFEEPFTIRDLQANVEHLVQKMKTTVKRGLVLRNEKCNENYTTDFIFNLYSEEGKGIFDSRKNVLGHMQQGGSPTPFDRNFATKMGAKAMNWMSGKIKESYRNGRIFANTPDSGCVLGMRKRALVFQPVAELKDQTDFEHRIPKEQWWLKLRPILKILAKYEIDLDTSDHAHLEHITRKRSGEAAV
Method in brief: as §1

T1 sequence (P11413 whole entry): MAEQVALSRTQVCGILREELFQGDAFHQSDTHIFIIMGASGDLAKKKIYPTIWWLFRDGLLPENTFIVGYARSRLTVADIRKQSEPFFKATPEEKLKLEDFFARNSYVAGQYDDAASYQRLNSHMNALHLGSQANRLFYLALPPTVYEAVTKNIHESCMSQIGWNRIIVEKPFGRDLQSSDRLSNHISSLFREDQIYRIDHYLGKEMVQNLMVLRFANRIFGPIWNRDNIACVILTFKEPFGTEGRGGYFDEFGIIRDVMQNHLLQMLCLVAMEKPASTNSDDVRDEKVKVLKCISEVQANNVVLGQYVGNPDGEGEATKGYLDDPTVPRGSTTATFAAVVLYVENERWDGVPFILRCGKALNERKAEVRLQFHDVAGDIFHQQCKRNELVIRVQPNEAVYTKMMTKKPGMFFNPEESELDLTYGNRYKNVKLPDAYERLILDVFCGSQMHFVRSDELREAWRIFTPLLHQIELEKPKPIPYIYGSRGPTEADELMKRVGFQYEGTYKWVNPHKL
T3 sequence (Q14CX7 whole entry): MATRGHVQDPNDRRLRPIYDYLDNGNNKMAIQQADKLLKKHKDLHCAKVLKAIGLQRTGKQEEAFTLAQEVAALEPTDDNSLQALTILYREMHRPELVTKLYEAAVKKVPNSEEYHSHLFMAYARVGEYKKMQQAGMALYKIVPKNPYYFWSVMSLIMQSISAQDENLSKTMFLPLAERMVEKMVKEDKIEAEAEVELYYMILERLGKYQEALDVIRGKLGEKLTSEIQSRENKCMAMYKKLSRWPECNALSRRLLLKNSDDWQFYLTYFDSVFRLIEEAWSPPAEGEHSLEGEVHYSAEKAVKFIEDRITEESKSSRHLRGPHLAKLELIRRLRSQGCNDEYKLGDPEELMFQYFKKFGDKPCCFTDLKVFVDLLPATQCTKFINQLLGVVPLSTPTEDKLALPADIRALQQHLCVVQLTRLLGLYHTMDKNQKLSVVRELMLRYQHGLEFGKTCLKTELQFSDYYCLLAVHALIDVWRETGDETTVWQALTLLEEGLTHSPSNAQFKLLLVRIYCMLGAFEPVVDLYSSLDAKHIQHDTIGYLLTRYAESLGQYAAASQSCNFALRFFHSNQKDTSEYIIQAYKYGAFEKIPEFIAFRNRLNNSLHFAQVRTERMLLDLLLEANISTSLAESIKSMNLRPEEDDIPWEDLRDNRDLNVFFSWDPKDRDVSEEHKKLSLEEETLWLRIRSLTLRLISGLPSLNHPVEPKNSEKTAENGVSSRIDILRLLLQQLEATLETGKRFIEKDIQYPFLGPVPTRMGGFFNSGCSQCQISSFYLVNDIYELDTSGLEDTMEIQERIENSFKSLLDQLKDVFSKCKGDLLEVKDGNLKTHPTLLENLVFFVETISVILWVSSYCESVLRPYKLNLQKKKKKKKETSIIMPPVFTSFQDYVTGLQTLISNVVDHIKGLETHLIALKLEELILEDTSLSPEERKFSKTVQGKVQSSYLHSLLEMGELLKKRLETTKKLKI

| Structure (SMILES) | isoTOP-ABPP ratio (R) at liganded lysine P11413_K171 ([1]; 50 uM, in vitro) | isoTOP-ABPP ratio (R) at liganded lysine P46734_K93 ([2]; 50 uM, in vitro) | isoTOP-ABPP ratio (R) at liganded lysine Q14CX7_K575 ([3]; 50 uM, in vitro) | isoTOP-ABPP ratio (R) at liganded lysine P08237_K678 ([4]; 50 uM, in vitro) | isoTOP-ABPP ratio, lysine P11413_K171 ([1]; 50 uM_231_sol_in vitro) | isoTOP-ABPP ratio, lysine P46734_K93 ([2]; 50 uM_231_sol_in vitro) | isoTOP-ABPP ratio, lysine Q14CX7_K575 ([3]; 50 uM_231_sol_in vitro) | isoTOP-ABPP ratio, lysine P08237_K678 ([4]; 50 uM_231_sol_in vitro) | further results |
| --- | --- | --- | --- | --- | --- | --- | --- | --- | --- |
| COc1cc(CCC(=O)Oc2ccc([N+](=O)[O-])cc2[N+](=O)[O-])cc(OC)c1OC [fragment 33, 2,4-Dinitrophenyl 3-(3,4,5-trimethoxyphenyl)propanoate] |  |  |  |  |  |  |  |  | isoTOP-ABPP reactivity ratio at lysine P11413_K171 ([1]; 50 uM, 231 sol, in vitro): 16.3; isoTOP-ABPP reactivity ratio at lysine P46734_K93 ([2]; 50 uM, 231 sol, in vitro): 0.9; isoTOP-ABPP reactivity ratio at lysine Q14CX7_K575 ([3]; 50 uM, 231 sol, in vitro): 1.1; isoTOP-ABPP reactivity ratio at lysine P08237_K678 ([4]; 50 uM, 231 sol, in vitro): 4.0 |
| O=C(Oc1ccc([N+](=O)[O-])cc1[N+](=O)[O-])c1ccc2ccccc2n1 [fragment 35, 2,4-Dinitrophenyl quinoline-2-carboxylate] | 1.7 | 1.0 | 0.9 | 1.2 |  |  |  |  |  |
| O=C(CCc1coc2cc(F)ccc2c1=O)Oc1ccc([N+](=O)[O-])cc1[N+](=O)[O-] [fragment 36, 2,4-Dinitrophenyl 3-(7-fluoro-4-oxo-4H-chromen-3-yl)propanoate] | 1.0 | 0.9 | 1.5 | 5.3 |  |  |  |  |  |
| O=C(Oc1ccc([N+](=O)[O-])cc1[N+](=O)[O-])c1ccc(-c2ccccc2)cc1 [fragment 37, 2,4-Dinitrophenyl [1,1′-biphenyl]-4-carboxylate] | 0.9 | 0.7 | 0.9 | 1.0 |  |  |  |  |  |
| O=C(Oc1ccc([N+](=O)[O-])cc1[N+](=O)[O-])c1ccc(Oc2ccccc2)cc1 [fragment 39, 2,4-Dinitrophenyl 4-phenoxybenzoate] | 1.1 | 0.8 | 1.0 | 1.0 |  |  |  |  |  |
| O=C(Oc1ccc([N+](=O)[O-])cc1[N+](=O)[O-])c1ccccc1Nc1cccc(C(F)(F)F)c1 [fragment 40, 2,4-Dinitrophenyl 2-((3-(trifluoromethyl)phenyl)amino)benzoate] | 1.9 | 1.0 | 0.8 | 0.9 |  |  |  |  |  |
| N#Cc1ccc(C(=O)Oc2ccc([N+](=O)[O-])cc2[N+](=O)[O-])cc1 [fragment 44, 2,4-Dinitrophenyl 4-cyanobenzoate] |  |  |  |  | 1.3 | 0.8 | 0.8 | 1.9 |  |
| O=C(CCc1ccc2c(c1)OCO2)Oc1ccc([N+](=O)[O-])cc1[N+](=O)[O-] [fragment 45, 2,4-Dinitrophenyl 3-(benzo[d][1,3]dioxol-5-yl)propanoate] |  |  |  |  | 1.1 | 0.9 | 1.2 | 4.8 |  |
| O=C(Oc1c(F)c(F)cc(F)c1F)c1cc(C(F)(F)F)cc(C(F)(F)F)c1 [fragment 48, 2,3,5,6-Tetrafluorophenyl 3,5-bis(trifluoromethyl)benzoate] |  |  |  |  | 0.9 | 1.1 | 1.1 | 0.9 |  |
| COC(=O)NC(=NC(=O)OCC1c2ccccc2-c2ccccc21)n1cccn1 [fragment 49, N-Methoxycarbonyl-N′-9-fluorenylmethoxycarbonyl-pyrazole-1-carboxamidine] |  |  |  |  |  |  |  |  | isoTOP-ABPP ratio, lysine P11413_K171 ([1]; 100 uM_231_sol_in vitro): 1.2; isoTOP-ABPP ratio, lysine P46734_K93 ([2]; 100 uM_231_sol_in vitro): 6.8; isoTOP-ABPP ratio, lysine Q14CX7_K575 ([3]; 100 uM_231_sol_in vitro): 1.1; isoTOP-ABPP ratio, lysine P08237_K678 ([4]; 100 uM_231_sol_in vitro): 5.4 |
| NC(=O)c1cc(C(F)(F)F)cc(C(F)(F)F)c1 [fragment 51, reference compound] |  |  |  |  | 0.9 | 1.0 | 1.0 | 0.8 |  |
